{"source": "patent US20130331331A1", "about": "“HEXAPEPTIDE WITH IMPROVED ACTIVITY IN THE REPAIR OF CELLULAR DNA OF DERMAL CELLS” (priority 2011, published 2013)", "system": "human melanocytes", "test": "DNA damage as measured by 8-oxo-dG immunofluorescence", "assay_type": "cell-based", "description": "DNA damage of cultured melanocytes following UV irradiation leads to consistent levels of photoproducts such as 8-oxo-dG. It is well established in the art (dermal carcinogenesis) that 8-oxodG is a major form of UV-induced oxidative DNA damage, which results from the generation of reactive oxygen species (ROS). The induction of 8-oxodG by 8-oxo-dGTP can be inhibited by pyrophosphohydrolases (8-[…]) that convert it to 8-oxo-dGMP. […] Immunofluorescence was detected using a microscope with FITC filters. Data were expressed as the mean fluorescence intensity±S.E., determined using the densitometry values from 6-8 randomly obtained images, using the computer assisted program Alpha Inotech Imaging System and the AlphaEase FC StandAlone Software.", "note": "Non-standard residues stand in square brackets, D forms with d. Nle = CCCC[C@H](N)C(=O)O"}
{"substance": "Ac-Nle-Glu His-D-Phe-Arg-Trp-NH2 (Ac-[Nle]EH[dF]RW-NH2; SMILES CCCC[C@H](NC(C)=O)C(=O)N[C@@H](CCC(=O)O)C(=O)N[C@@H](Cc1c[nH]cn1)C(=O)N[C@H](Cc1ccccc1)C(=O)N[C@@H](CCCNC(=N)N)C(=O)N[C@@H](Cc1c[nH]c2ccccc12)C(N)=O) [CUV9900, hexapeptide alpha-MSH analogue]", "values": [{"measurement": "less 8-oxo-dG cellular DNA damage in comparison with alpha-MSH", "result": 33, "unit": "%"}]}
